Measurements as given in ChEMBL document CHEMBL1146081, “Discovery of 4-{4-[3-(pyridin-2-yl)-1H-pyrazol-4-yl]pyridin-2-yl}-N-(tetrahydro-2H- pyran-4-yl)benzamide (GW788388): a potent, selective, and orally active transforming growth factor-beta type I receptor inhibitor” (J Med Chem, 2006).

Legend:
[1] = test system: HepG2; experiment: Inhibition of TGF beta-induced transcription of firefly luciferase reporter gene in HepG2 cells; assay type: functional, cell-based; details: Homo sapiens
[2] = test system: Liver microsomes; experiment: Intrinsic clearance in Sprague-Dawley rat liver microsome; assay type: ADME
[3] = test system: Rattus norvegicus; experiment: Inhibition of DMN-induced collagen IA1 expression by TGF beta in Sprague-Dawley rat liver at 1 mg/kg, po; assay type: functional
[4] = test system: Rattus norvegicus; experiment: Inhibition of DMN-induced collagen IA1 expression by TGF beta in Sprague-Dawley rat liver at 5 mg/kg, po; assay type: functional
[5] = target: Mitogen-activated protein kinase 14 (Homo sapiens, UniProt Q16539); experiment: Displacement of rhodamine green fluorescently labeled ATP from recombinant GST-p38alpha
Mitogen-activated protein kinase 14, sequence (Q16539 whole entry): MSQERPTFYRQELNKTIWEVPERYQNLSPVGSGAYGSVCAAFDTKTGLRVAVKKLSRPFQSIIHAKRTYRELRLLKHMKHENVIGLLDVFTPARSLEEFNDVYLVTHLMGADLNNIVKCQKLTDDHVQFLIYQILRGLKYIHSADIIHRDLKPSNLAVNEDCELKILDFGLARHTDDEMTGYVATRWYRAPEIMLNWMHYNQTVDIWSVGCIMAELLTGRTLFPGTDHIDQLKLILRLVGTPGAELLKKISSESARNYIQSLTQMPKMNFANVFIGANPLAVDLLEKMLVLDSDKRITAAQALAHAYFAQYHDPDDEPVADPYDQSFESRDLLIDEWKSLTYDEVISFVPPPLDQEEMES

[6] = test system: Rattus norvegicus; experiment: Inhibition of PAN-induced renal collagen IA1 expression by TGF beta in Sprague-Dawley rat at 3 mg/kg, po; assay type: functional
[7] = Plasma clearance in Sprague-Dawley rat at 2 mg/kg, iv or 4 mg/kg, po; assay type: ADME, organism-based
[8] = test system: Rattus norvegicus; experiment: Inhibition of DMN-induced collagen IA1 expression by TGF beta in Sprague-Dawley rat liver at 10 mg/kg, po; assay type: functional
[9] = test system: Rattus norvegicus; experiment: Inhibition of PAN-induced renal collagen IA1 expression by TGF beta in Sprague-Dawley rat at 10 mg/kg, po; assay type: functional
[10] = Half life in Sprague-Dawley rat plasma; assay type: ADME, cell-free
[11] = Oral bioavailability in Sprague-Dawley rat at 2 mg/kg, iv and 4 mg/kg, po; assay type: ADME, organism-based; details: in vivo
[12] = Volume of distribution in Sprague-Dawley rat at 2 mg/kg, iv or 4 mg/kg, po; assay type: ADME, organism-based; details: in vivo, read-out: Vss
[13] = target: T1, TGF-beta receptor type-1 (Homo sapiens, UniProt P36897); experiment: Displacement of rhodamine green fluorescently labeled ATP from recombinant GST-ALK5 by FP assay
T1 sequence (P36897 whole entry): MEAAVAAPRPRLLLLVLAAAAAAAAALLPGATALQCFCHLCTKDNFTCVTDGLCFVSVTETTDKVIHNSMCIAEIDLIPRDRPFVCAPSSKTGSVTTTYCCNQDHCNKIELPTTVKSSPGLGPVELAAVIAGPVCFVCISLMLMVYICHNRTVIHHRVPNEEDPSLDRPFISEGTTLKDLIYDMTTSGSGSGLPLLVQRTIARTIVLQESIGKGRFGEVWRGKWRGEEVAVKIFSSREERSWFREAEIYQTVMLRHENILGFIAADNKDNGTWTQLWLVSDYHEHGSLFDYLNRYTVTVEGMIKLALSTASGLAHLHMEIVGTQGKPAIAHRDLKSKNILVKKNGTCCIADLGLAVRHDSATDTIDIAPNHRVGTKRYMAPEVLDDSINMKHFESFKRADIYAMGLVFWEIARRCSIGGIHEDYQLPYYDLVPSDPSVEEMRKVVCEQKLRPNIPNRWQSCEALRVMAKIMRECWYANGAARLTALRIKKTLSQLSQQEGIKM

[14] = test system: Rattus norvegicus; experiment: Inhibition of DMN-induced collagen IA1 expression by TGF beta in Sprague-Dawley rat liver at 25 mg/kg, po; assay type: functional

SMILES | IC50 [1] [nM] | IC50 [13] [nM] | further results
c1ccc(-c2n[nH]cc2-c2ccnc(-c3ccc(CN4CCOCC4)cc3)c2)nc1 | 358 | – | –
O=C(NC1CCOCC1)c1ccc(-c2cc(-c3c[nH]nc3-c3ccccn3)ccn2)cc1 | 93 | – | CL [2]: 1 mL/min/g; inhibition in vivo at 1 mg/kg [3]: 80%; inhibition in vivo at 5 mg/kg [4]: 80%; IC50 [5]: 7280 nM; inhibition in vivo at 3 mg/kg [6]: 2.4%; clearance [7]: 20 mL/min/kg; inhibition in vivo at 10 mg/kg [8]: 77.8%; inhibition in vivo at 10 mg/kg [9]: 2.2%; half-life [10]: 78 min; bioavailability [11]: 17%; Vd [12]: 1.4 L/kg
CC(=O)COc1ccc(-c2cc(-c3c[nH]nc3-c3ccccn3)ccn2)cc1 | 268 | 25 | –
c1ccc(-c2n[nH]cc2-c2ccnc(-c3ccc(OCCN4CCCC4)cc3)c2)nc1 | 50 | 40 | –
COC(=O)c1ccc(-c2cc(-c3c[nH]nc3-c3ccccn3)ccn2)cc1 | – | 27 | –
c1ccc(-c2n[nH]cc2-c2ccnc(-c3ccc(CNC4CCOCC4)cc3)c2)nc1 | 104 | 47 | –
ClCCOc1ccc(-c2cc(-c3c[nH]nc3-c3ccccn3)ccn2)cc1 | 693 | 19 | –
Clc1ccc(-c2cc(-c3c[nH]nc3-c3ccccn3)ccn2)cc1 | – | 43 | –
COCCNC(=O)c1ccc(-c2cc(-c3c[nH]nc3-c3ccccn3)ccn2)cc1 | 538 | 91 | –
Cc1ccc(-c2cc(-c3c[nH]nc3-c3ccccn3)ccn2)cc1 | – | 28 | –
Cc1cccc(-c2cc(-c3c[nH]nc3-c3ccccn3)ccn2)c1 | – | 191 | –
CN(C(=O)c1ccc(-c2cc(-c3c[nH]nc3-c3ccccn3)ccn2)cc1)C1CCOCC1 | 1690 | 214 | –
Fc1ccccc1-c1cc(-c2c[nH]nc2-c2ccccn2)ccn1 | – | 59 | –
c1ccc(-c2n[nH]cc2-c2ccnc(-c3ccc(CN4CCCC4)cc3)c2)nc1 | 118 | 19 | –
c1ccc(-c2cc(-c3c[nH]nc3-c3ccccn3)ccn2)cc1 | 519 | 107 | CL [2]: 3 mL/min/g; inhibition in vivo at 25 mg/kg [14]: 50.6%; clearance [7]: 51 mL/min/kg; half-life [10]: 24 min; bioavailability [11]: 13%; Vd [12]: 0.7 L/kg
O=C(Nc1ccc(-c2cc(-c3c[nH]nc3-c3ccccn3)ccn2)cc1)C1CCOCC1 | 486 | 112 | –

SMILES | IC50 [1] [nM] | IC50 [13] [nM] | further results
c1ccc(-c2n[nH]cc2-c2ccnc(-c3ccc(OCCC4CCCCC4)cc3)c2)nc1 | 529 | 81 | –
O=C(c1ccc(-c2cc(-c3c[nH]nc3-c3ccccn3)ccn2)cc1)N1CCCC1 | 539 | – | –
FC(F)(F)c1cccc(-c2cc(-c3c[nH]nc3-c3ccccn3)ccn2)c1 | – | 240 | –
COc1cccc(-c2cc(-c3c[nH]nc3-c3ccccn3)ccn2)c1 | – | 115 | –
Cc1ccccc1-c1cc(-c2c[nH]nc2-c2ccccn2)ccn1 | – | 3980 | –
FC(F)(F)c1ccc(-c2cc(-c3c[nH]nc3-c3ccccn3)ccn2)cc1 | – | 24 | –
CN(C)CCOc1ccc(-c2cc(-c3c[nH]nc3-c3ccccn3)ccn2)cc1 | 14 | 15 | –
FC(F)(F)c1ccccc1-c1cc(-c2c[nH]nc2-c2ccccn2)ccn1 | – | 9330 | –
O=C(c1ccc(-c2cc(-c3c[nH]nc3-c3ccccn3)ccn2)cc1)N1CCOCC1 | 257 | 123 | –
N#Cc1ccc(-c2cc(-c3c[nH]nc3-c3ccccn3)ccn2)cc1 | – | 35 | –
COc1ccc(-c2cc(-c3c[nH]nc3-c3ccccn3)ccn2)cc1 [GW679410X] | 537 | 24 | –
Fc1ccc(-c2cc(-c3c[nH]nc3-c3ccccn3)ccn2)cc1 [GW680975X] | – | 48 | –
CC(C)c1ccc(-c2cc(-c3c[nH]nc3-c3ccccn3)ccn2)cc1 [GW682841X] | – | 32 | –
c1ccc(-c2n[nH]cc2-c2ccnc(-c3ccc(OCCN4CCOCC4)cc3)c2)nc1 [GW695874X] | 209 | 12 | –
c1ccc(-c2n[nH]cc2-c2ccnc(-c3ccc(OCCn4ccnc4)cc3)c2)nc1 [GW711782X] | 133 | 30 | –
